Measurements reported in patent publication US8927717B1, “Thiochromeno[2,3-c]quinolin-12-one derivatives, preparation method and application thereof” (National Defense Medical Center, priority 2014, dated 2015).

Assays:
SK-OV-3 = assay type: cell-based; conditions: Ovarian cancer; 10^−5 molar; 48 hours; SRB
U251 = assay type: cell-based; conditions: CNS cancer; 10^−5 molar; 48 hours; SRB
UO-31 = assay type: cell-based; conditions: Renal cancer; 10^−5 molar; 48 hours; SRB
SK-MEL-5 = assay type: cell-based; conditions: Melanoma; 10^−5 molar; 48 hours; SRB
IGROV1 = assay type: cell-based; conditions: Ovarian cancer; 10^−5 molar; 48 hours; SRB
RPMI-8226 = assay type: cell-based; conditions: Leukemia; 10^−5 molar; 48 hours; SRB
COLO 205 = assay type: cell-based; conditions: Colon cancer; 10^−5 molar; 48 hours; SRB
MCF7 = assay type: cell-based; conditions: Breast cancer; 10^−5 molar; 48 hours; SRB
T-47D = assay type: cell-based; conditions: Breast cancer; 10^−5 molar; 48 hours; SRB
SW-620 = assay type: cell-based; conditions: Colon cancer; 10^−5 molar; 48 hours; SRB
MDA-MB-435 = assay type: cell-based; conditions: Melanoma; 10^−5 molar; 48 hours; SRB
MDA-MB-486 = assay type: cell-based; conditions: Breast cancer; 10^−5 molar; 48 hours; SRB
786-0 = assay type: cell-based; conditions: Renal cancer; 10^−5 molar; 48 hours; SRB
MOLT-4 = assay type: cell-based; conditions: Leukemia; 10^−5 molar; 48 hours; SRB
HOP-62 = assay type: cell-based; conditions: Non-small cell lung cancer; 10^−5 molar; 48 hours; SRB
M14 = assay type: cell-based; conditions: Melanoma; 10^−5 molar; 48 hours; SRB
NCI-H522 = assay type: cell-based; conditions: Non-small cell lung cancer; 10^−5 molar; 48 hours; SRB
OVCAR-5 = assay type: cell-based; conditions: Ovarian cancer; 10^−5 molar; 48 hours; SRB
OVCAR-4 = assay type: cell-based; conditions: Ovarian cancer; 10^−5 molar; 48 hours; SRB
SN12C = assay type: cell-based; conditions: Renal cancer; 10^−5 molar; 48 hours; SRB
HT29 = assay type: cell-based; conditions: Colon cancer; 10^−5 molar; 48 hours; SRB
HS 578T = assay type: cell-based; conditions: Breast cancer; 10^−5 molar; 48 hours; SRB
NCI-H23 = assay type: cell-based; conditions: Non-small cell lung cancer; 10^−5 molar; 48 hours; SRB
OVCAR-8 = assay type: cell-based; conditions: Ovarian cancer; 10^−5 molar; 48 hours; SRB
UACC-257 = assay type: cell-based; conditions: Melanoma; 10^−5 molar; 48 hours; SRB
SF-295 = assay type: cell-based; conditions: CNS cancer; 10^−5 molar; 48 hours; SRB
SR = assay type: cell-based; conditions: Leukemia; 10^−5 molar; 48 hours; SRB
MDA-MB-231/ATCC = assay type: cell-based; conditions: Breast cancer; 10^−5 molar; 48 hours; SRB
SF-268 = assay type: cell-based; conditions: CNS cancer; 10^−5 molar; 48 hours; SRB
NCI-H460 = assay type: cell-based; conditions: Non-small cell lung cancer; 10^−5 molar; 48 hours; SRB
HCT-15 = assay type: cell-based; conditions: Colon cancer; 10^−5 molar; 48 hours; SRB
SNB-75 = assay type: cell-based; conditions: CNS cancer; 10^−5 molar; 48 hours; SRB
ACHN = assay type: cell-based; conditions: Renal cancer; 10^−5 molar; 48 hours; SRB
NCI-H226 = assay type: cell-based; conditions: Non-small cell lung cancer; 10^−5 molar; 48 hours; SRB
LOX IMVI = assay type: cell-based; conditions: Melanoma; 10^−5 molar; 48 hours; SRB
HL-60(TB) = assay type: cell-based; conditions: Leukemia; 10^−5 molar; 48 hours; SRB
KM12 = assay: cells; assay type: cell-based; conditions: Colon cancer; 10^−5 molar; 48 hours; SRB
SNB-19 = assay type: cell-based; conditions: CNS cancer; 10^−5 molar; 48 hours; SRB
A498 = assay type: cell-based; conditions: Renal cancer; 10^−5 molar; 48 hours; SRB
BT-549 = assay type: cell-based; conditions: Breast cancer; 10^−5 molar; 48 hours; SRB
CCRF-CEM = assay type: cell-based; conditions: Leukemia; 10^−5 molar; 48 hours; SRB
SK-MEL-2 = assay type: cell-based; conditions: Melanoma; 10^−5 molar; 48 hours; SRB
OVCAR-3 = assay type: cell-based; conditions: Ovarian cancer; 10^−5 molar; 48 hours; SRB
MALME-3M = assay type: cell-based; conditions: Melanoma; 10^−5 molar; 48 hours; SRB
PC-3 = assay type: cell-based; conditions: Prostate cancer; 10^−5 molar; 48 hours; SRB
K-562 = assay type: cell-based; conditions: Leukemia; 10^−5 molar; 48 hours; SRB
CAKI-1 = assay type: cell-based; conditions: Renal cancer; 10^−5 molar; 48 hours; SRB
A549/ATCC = assay type: cell-based; conditions: Non-small cell lung cancer; 10^−5 molar; 48 hours; SRB
HCT-116 = assay type: cell-based; conditions: Colon cancer; 10^−5 molar; 48 hours; SRB
NCI/ADR-RES = assay type: cell-based; conditions: Ovarian cancer; 10^−5 molar; 48 hours; SRB
60 cancer cell lines = assay: NCI 60-cell screen, SRB, whole panel (mean, delta, range); assay type: cell-based; conditions: 10^−5 molar, 48 hours, SRB
SK-MEL-28 = assay type: cell-based; conditions: Melanoma; 10^−5 molar; 48 hours; SRB
HCC-2998 = assay type: cell-based; conditions: Colon cancer; 10^−5 molar; 48 hours; SRB
UACC-62 = assay type: cell-based; conditions: Melanoma; 10^−5 molar; 48 hours; SRB
HOP-92 = assay type: cell-based; conditions: Non-small cell lung cancer; 10^−5 molar; 48 hours; SRB
TK-10 = assay type: cell-based; conditions: Renal cancer; 10^−5 molar; 48 hours; SRB
SF-539 = assay type: cell-based; conditions: CNS cancer; 10^−5 molar; 48 hours; SRB
DU-145 = assay type: cell-based; conditions: Prostate cancer; 10^−5 molar; 48 hours; SRB
RXF 393 = assay type: cell-based; conditions: Renal cancer; 10^−5 molar; 48 hours; SRB

## O=c1c2ccc(Cl)cc2sc2c(Cl)nc3ccccc3c12 [Compound 3, 6,9-Dichloro-12H-thiochromeno[2,3-c]quinolin-12-one]
SK-OV-3
  Growth percent SK-OV-3: 101.32%
U251
  Growth percent U251: 101.71%
UO-31
  Growth percent UO-31: 66.06%
SK-MEL-5
  Growth percent SK-MEL-5: 97.42%
IGROV1
  Growth percent IGROV1: 96.06%
RPMI-8226
  Growth percent RPMI-8226: 100.19%
COLO 205
  Growth percent COLO 205: 112.15%
MCF7
  Growth percent MCF7 (Table 2: MCF): 82.58%
T-47D
  Growth percent T-47D: 110.10%
SW-620
  Growth percent SW-620: 99.06%
MDA-MB-435
  Growth percent MDA-MB-435: 100.64%
MDA-MB-486
  Growth percent MDA-MB-486: 98.57%
786-0
  Growth percent 786-0: 105.25%
MOLT-4
  Growth percent MOLT-4: 98.04%
HOP-62
  Growth percent HOP-62: 82.02%
M14
  Growth percent M14: 106.18%
NCI-H522
  Growth percent NCI-H522: 96.81%
OVCAR-5
  Growth percent OVCAR-5: 100.07%
OVCAR-4
  Growth percent OVCAR-4: 87.91%
SN12C
  Growth percent SN12C: 95.92%
HT29
  Growth percent HT29: 99.73%
HS 578T
  Growth percent HS 578T: 95.14%
NCI-H23
  Growth percent NCI-H23: 85.12%
OVCAR-8
  Growth percent OVCAR-8: 101.62%
UACC-257
  Growth percent UACC-257: 104.47%
SF-295
  Growth percent SF-295: 90.26%
SR
  Growth percent SR: 89.02%
MDA-MB-231/ATCC
  Growth percent MDA-MB-231/ATCC: 84.28%
SF-268
  Growth percent SF-268: 109.60%
NCI-H460
  Growth percent NCI-H460: 103.14%
HCT-15
  Growth percent HCT-15: 102.28%
SNB-75
  Growth percent SNB-75: 77.88%
ACHN
  Growth percent ACHN: 86.84%
NCI-H226
  Growth percent NCI-H226: 83.41%
LOX IMVI
  Growth percent LOX IMVI: 90.53%
HL-60(TB)
  Growth percent HL-60(TB): 99.34%
KM12
  Growth percent KM12: 111.27%
SNB-19
  Growth percent SNB-19: 107.89%
A498
  Growth percent A498: 106.06%
BT-549
  Growth percent BT-549: 110.01%
CCRF-CEM
  Growth percent CCRF-CEM: 93.12%
SK-MEL-2
  Growth percent SK-MEL-2: 95.54%
OVCAR-3
  Growth percent OVCAR-3: 111.27%
MALME-3M
  Growth percent MALME-3M: 95.87%
PC-3
  Growth percent PC-3: 91.59%
K-562
  Growth percent K-562: 101.04%
CAKI-1
  Growth percent CAKI-1: 94.31%
other
  melting point: 259 to 261 °C
A549/ATCC
  Growth percent A549/ATCC: 104.74%
HCT-116
  Growth percent HCT-116: 102.27%
NCI/ADR-RES
  Growth percent NCI/ADR-RES: 102.80%
60 cancer cell lines; delta over the cell panel
  Growth percent, Delta: 32.05%
60 cancer cell lines; mean over the cell panel
  Growth percent, Mean: 98.11%
60 cancer cell lines; range over the cell panel
  Growth percent, Range: 57.22%
SK-MEL-28
  Growth percent SK-MEL-28: 101.80%
HCC-2998
  Growth percent HCC-2998: 123.28%
UACC-62
  Growth percent UACC-62: 89.69%
HOP-92
  Growth percent HOP-92: 90.83%
TK-10
  Growth percent TK-10: 108.56%
SF-539
  Growth percent SF-539: 89.02%
DU-145
  Growth percent DU-145: 114.27%
RXF 393
  Growth percent RXF 393: 102.55%
